From patent publication US20050159599A1, “Cyclic compound, process for producing the same, and pest control agent” (priority 2002, published 2005)

Tests used:
Spodoptera litura [1] = experiment: Insecticidal effect for Spodoptera litura by spraying treatment to host crop (Test Example 2); format: in vivo; conditions: 100 ppm, sprayed on soybean, third-instar larvae of Spodoptera litura, fifth day after
Protocol: Insecticidal Effect for Spodoptera litura by Spraying Treatment to Host Crop
A pesticidal solution, which was prepared by dissolving 5 mg of test compound (represented by the compound Nos. in the above Examples) in 0.5-ml of acetone containing Tween 20 (trade name) and then diluting it to the prescribed concentration (100 ppm) with Dain (trade name, sticker) water diluted 5000-fold, was sprayed on a soybean whose primary leaves had developed completely with spray gun in the amounts wherein the pesticidal solution dripped. After drying the pesticidal solution, two primary leaves were cut off. The leaves were put into an ice cream cup (180 ml), and ten third-instar larvae of Spodoptera litura were set free therein. The cup was left in a temperature-controlled breeding room (25° C.). On the fifth day after, the number of surviving Spodoptera litura was examined. The rate of dead pests was calculated by the following formula. rate of dead pests (%)=(number of dead pests/number of test pests)×100

Spodoptera litura [2] = experiment: Insecticidal effect for Spodoptera litura by immersion treatment of host crop root (Test Example 4); format: in vivo; conditions: soybean root immersion 5 days, second-instar larvae of Spodoptera litura, fifth day after; for pest or weed control at 25 ppm: 120 h, read-out: rate of dead pests (%)
Protocol: Insecticidal Effect for Spodoptera litura by Immersion Treatment of Host Crop Root Roots of primary leaves developing stage soybean was washed with tap water to remove soil, and then immersed in a pesticidal solution which was prepared by dissolving 5 mg of test compound (represented by the compound Nos. in the above Examples) in 0.5 ml of acetone containing Tween 20 ([…]) with ion-exchange water, and which was filled in a light-shielded Erlenmeyer flask (100 ml). On the fifth day after immersion of root, two primary leaves were cut off, and the leaves were put into an ice cream cup (180 ml). Ten second-instar larvae of Spodoptera litura were set free therein, and the cup was left in a temperature-controlled breeding room (25° C.). On the fifth day after, the number of surviving Spodoptera litura was examined. The rate of dead pests was calculated by the following formula. rate of dead pests (%)=(number of dead pests/number of test pests)×100

SMILES | rate of dead pests (%) (Spodoptera litura [1]) | rate of dead pests (%) (Spodoptera litura [2]; 25 ppm) | further results
O=C(c1c(F)cccc1F)N1COCN(c2ccc(SC(F)(F)C(F)(F)F)cc2F)C1=O [I-128, 3-(2,6-difluorobenzoyl)-5-[2-fluoro-4-(1,1,2,2,2-pentafluoroethylthio)phenyl]tetrahydro-4H-1,3,5-oxadiazin-4-one] |  |  | pest or weed control at 100 ppm (Spodoptera litura [1]; 120 h, read-out: rate of dead pests (%)): 100%; pest or weed control at 25 ppm (Spodoptera litura [2]; 25 ppm): 100%
O=C(c1c(F)cccc1F)N1COCN(c2ccc(SCC=C(Cl)Cl)cc2F)C1=O [I-37] | 100 | 100 | 
O=C(c1c(F)cccc1F)N1COCN(c2ccc(SC(F)(F)F)cc2Cl)C1=O [I-74] | 100 | 100 | 
CCSc1ccc(N2COCN(C(=O)c3c(F)cccc3F)C2=O)c(F)c1 [I-47] | 100 | 100 | 
O=C(c1c(F)cccc1F)N1COCN(c2ccc([S+]([O-])C(F)(F)F)c(Cl)c2Cl)C1=O (centres unmarked) [I-93] | 100 | 100 | 
O=C(c1c(F)cccc1F)N1CN=CN(c2ccc(Cl)cc2)C1=O [V-1] | 100 | 100 | 
CC(=O)N1CN(C(=O)c2c(F)cccc2F)C(=O)N(c2ccc(Cl)cc2)C1 [III-9, 5-acetyl-1-(4-chlorophenyl)-3-(2,6-difluorobenzoyl)tetrahydro-1,3,5-triazin-2(1H)-one] |  |  | pest or weed control at 25 ppm (Spodoptera litura [2]; 25 ppm): 95%
O=C(c1c(F)cccc1Cl)N1COCN(c2cc(Cl)c(SC(F)(F)F)cc2F)C1=O [I-275] | 100 | 100 | 
C#CCSc1ccc(N2COCN(C(=O)c3c(F)cccc3F)C2=O)c(F)c1 [I-62] | 100 |  | rate of dead pests (%) (Spodoptera litura [2]; 5 ppm (so in the source)): 100%
CCCSc1ccc(N2COCN(C(=O)c3c(F)cccc3F)C2=O)c(F)c1 [I-50] |  | 100 | 
O=C(c1c(F)cccc1F)N1COCN(c2c(F)cc(SC(F)(F)F)cc2F)C1=O [I-104] | 100 | 100 | 
O=C(c1c(Cl)cccc1Cl)N1COCN(c2ccc([S+]([O-])C(F)F)cc2F)C1=O (centres unmarked) [I-396] |  | 100 | 
O=C(c1c(F)cccc1F)N1COCN(c2c(F)cc(SC(F)(F)F)cc2Cl)C1=O [I-101] | 100 | 100 | 
O=C(c1c(F)cccc1Cl)N1COCN(c2ccc(SC(F)(F)F)cc2Cl)C1=O [I-251] |  | 90 | 
C[S+]([O-])c1cc(F)c(N2COCN(C(=O)c3c(F)cccc3F)C2=O)c(F)c1 (centres unmarked) [I-32] | 100 | 90 | 
O=C(c1c(F)cccc1Cl)N1COCN(c2ccc([S+]([O-])C(F)(F)C(F)(F)F)cc2F)C1=O (centres unmarked) [I-306] | 100 | 100 | 
O=C(c1c(F)cccc1F)N1C[S+]([O-])CN(c2cc(Cl)c(F)c(Cl)c2F)C1=O (centres unmarked) [II-11] | 100 | 100 | 
O=C(c1c(F)cccc1F)N1C=NCN(c2cc(Cl)c(F)c(Cl)c2F)C1=O [IV-4, 3-(3,5-dichloro-2,4-difluorophenyl)-1-(2,6-difluorobenzoyl)-3,4-dihydro-1,3,5-triazin-2(1H)-one] |  |  | pest or weed control at 25 ppm (Spodoptera litura [2]; 25 ppm): 100%
CN1CN(CC(F)(F)F)C(=O)N(C(=O)c2c(F)cccc2F)C1 [III-144] |  | 100 | 
CC[S+]([O-])c1ccc(N2COCN(C(=O)c3c(F)cccc3F)C2=O)c(F)c1 (centres unmarked) [I-48] |  | 100 | 
COC(=O)C(=O)N1CN(C(=O)c2c(F)cccc2F)C(=O)N(c2ccc(Cl)cc2)C1 [III-15] |  | 95 | 
O=C(c1c(F)cccc1F)N1CSCN(CC(F)(F)F)C1=O [II-64] |  | 95 | 
O=C(c1c(F)cccc1F)N1CN(C(=O)C(F)(F)F)CN(c2ccc(Oc3ccc(C(F)(F)F)cc3Cl)cc2F)C1=O [III-32] | 100 |  | 
CS(=O)(=O)N1CN(C(=O)c2c(F)cccc2F)C(=O)N(c2ccc([S+]([O-])C(F)(F)F)cc2F)C1 (centres unmarked) [III-166] | 100 |  | 
O=C(c1c(F)cccc1F)N1COCN(c2ccc(SC(F)(F)F)c(Cl)c2Cl)C1=O [I-92] | 100 |  | 
